What was measured:
[1] = test system: Influenza A virus; experiment: Anti-viral activity against Influenza A virus H7N1 pseudotype infected in human A549 cells assessed as inhibition of viral entry incubated for 48 hrs by Neolite Reporter Gene Assay; type: functional, organism-based; details: H7N1, A549, 48 h
[2] = Cytotoxicity against human A549 cells incubated for 48 hrs by CellTiter-Glo Luminescent Cell Viability Assay; type: toxicity, cell-based
[3] = Metabolic stability in BALB/c mouse liver microsomes assessed as compound remaining at 2 to 10 uM measured after 60 mins in presence of quinidine/NADPH by LC-MS/MS analysis; type: ADME, Microsome; details: with quinidine, dose 2-10 µM, read-out: Stability
[4] = Metabolic stability in human liver microsomes assessed as compound remaining at 2 to 10 uM measured after 60 mins in presence of NADPH by LC-MS/MS analysis; type: ADME, Microsome; details: dose 2-10 µM, read-out: Stability
[5] = Metabolic stability in human plasma at 2 uM measured after 60 mins by LC-MS/MS analysis; type: ADME, cell-free; details: 1 h
[6] = Metabolic stability in BALB/c mouse liver microsomes assessed as compound remaining at 2 to 10 uM measured after 60 mins in absence of NADPH by LC-MS/MS analysis; type: ADME, Microsome; details: dose 2-10 µM, read-out: Stability
[7] = Metabolic stability in human liver microsomes assessed as compound remaining at 2 to 10 uM measured after 60 mins in presence of sulfaphenazole/NADPH by LC-MS/MS analysis; type: ADME, Microsome; details: with sulfaphenazole, dose 2-10 µM, read-out: Stability
[8] = Metabolic stability in mouse plasma at 2 uM measured after 60 mins by LC-MS/MS analysis; type: ADME, cell-free; details: 1 h
[9] = Metabolic stability in human liver microsomes assessed as compound remaining at 2 to 10 uM measured after 60 mins in presence of furafylline/NADPH by LC-MS/MS analysis; type: ADME, Microsome; details: with furafylline, dose 2-10 µM, read-out: Stability
[10] = Metabolic stability in BALB/c mouse liver microsomes assessed as compound remaining at 2 to 10 uM measured after 60 mins in presence of furafylline/NADPH by LC-MS/MS analysis; type: ADME, Microsome; details: with furafylline, dose 2-10 µM, read-out: Stability
[11] = Metabolic stability in BALB/c mouse liver microsomes assessed as compound remaining at 2 to 10 uM measured after 60 mins in presence of ketoconazole/NADPH by LC-MS/MS analysis; type: ADME, Microsome; details: with ketoconazole, dose 2-10 µM, read-out: Stability
[12] = Metabolic stability in BALB/c mouse liver microsomes assessed as compound remaining at 2 to 10 uM measured after 60 mins in presence of sulfaphenazole/NADPH by LC-MS/MS analysis; type: ADME, Microsome; details: with sulfaphenazole, dose 2-10 µM, read-out: Stability
[13] = Metabolic stability in human liver microsomes assessed as compound remaining at 2 to 10 uM measured after 60 mins in presence of quinidine/NADPH by LC-MS/MS analysis; type: ADME, Microsome; details: with quinidine, dose 2-10 µM, read-out: Stability
[14] = Metabolic stability in human liver microsomes assessed as compound remaining at 2 to 10 uM measured after 60 mins in presence of ketoconazole/NADPH by LC-MS/MS analysis; type: ADME, Microsome; details: with ketoconazole, dose 2-10 µM, read-out: Stability
[15] = Metabolic stability in human liver microsomes assessed as compound remaining at 2 to 10 uM measured after 60 mins in absence of NADPH by LC-MS/MS analysis; type: ADME, Microsome; details: dose 2-10 µM, read-out: Stability
[16] = Metabolic stability in BALB/c mouse liver microsomes assessed as compound remaining at 2 to 10 uM measured after 60 mins in presence of NADPH by LC-MS/MS analysis; type: ADME, Microsome; details: dose 2-10 µM, read-out: Stability

| SMILES | EC50 [1] [µM] | CC50 at 48 h [2] [µM] | further results |
| --- | --- | --- | --- |
| Fc1cc(-c2nc3ncc(Cl)cn3c2NC2CCCCC2)ccc1N1CCCC1 | 12.5 | > 100 |  |
| CN1CCOc2cc(-c3nc4ncc(Cl)cn4c3NC3CCCCC3)ccc21 | 2.05 | > 100 |  |
| COc1ccc(-c2nc3ncccn3c2NC2CCCCC2)cc1 | 0.08 | > 1250 | remaining at 1 h, up to 10 µM [3]: 4.2%; remaining at 1 h, up to 10 µM [4]: 21.1%; Stability [5]: Stable; remaining at 1 h, up to 10 µM [6]: 113%; remaining at 1 h, up to 10 µM [7]: 32%; Stability [8]: Stable; remaining at 1 h, up to 10 µM [9]: 71%; remaining at 1 h, up to 10 µM [10]: 12.2%; remaining at 1 h, up to 10 µM [11]: 39.4%; remaining at 1 h, up to 10 µM [12]: 4.5%; remaining at 1 h, up to 10 µM [13]: 36.5%; remaining at 1 h, up to 10 µM [14]: 65.1%; remaining at 1 h, up to 10 µM [15]: 113%; remaining at 1 h, up to 10 µM [16]: 2.3% |
| COc1ccc(COc2ccc(-c3nc4ncccn4c3NC3CCCCC3)c(F)c2)cc1 | 2.1 | 39 |  |
| Oc1ccc(-c2nc3ncc(Cl)cn3c2NC2CCCCCC2)cc1 | 1.09 | 50 |  |
| Clc1cnc2nc(-c3ccccc3)c(NC3CCCCC3)n2c1 | 13 | > 100 |  |
| Oc1ccc(-c2nc3ncc(Br)cn3c2NC2CCCCCC2)cc1 | 3.65 | 45 |  |
| Cc1cc(C)n2c(NC3CCCCC3)c(-c3cc(Br)ncc3F)nc2n1 | 3.28 | > 25 |  |
| Fc1ccc(-c2nc3ncc(Cl)cn3c2NC2CCCCCC2)cc1F | 0.12 | > 100 | remaining at 1 h, up to 10 µM [4]: 2.1%; Stability [5]: Stable; remaining at 1 h, up to 10 µM [6]: 101%; Stability [8]: Stable; remaining at 1 h, up to 10 µM [15]: 97%; remaining at 1 h, up to 10 µM [16]: 6.3% |
| Cc1cc(C)n2c(NC3CCCCC3)c(-c3ccc(Cl)c(Cl)c3)nc2n1 | 2.51 | 12 |  |
| Cc1cc(C)n2c(NC3CCCCC3)c(-c3ccnc(Cl)c3)nc2n1 | 0.27 | > 25 | remaining at 1 h, up to 10 µM [4]: 0.5%; Stability [5]: Stable; remaining at 1 h, up to 10 µM [6]: 105%; Stability [8]: Stable; remaining at 1 h, up to 10 µM [15]: 114%; remaining at 1 h, up to 10 µM [16]: 6.8% |
| CN1CCN(c2ccc(-c3nc4ncc(Cl)cn4c3NC3CCCCC3)c(F)c2)CC1 | 1.26 | 46 |  |
| Fc1ccc(-c2nc3ncccn3c2NC2CCCCC2)cc1N1CCOCC1 | 0.68 | > 25 |  |
| Cc1cc(C)n2c(NC3CCCCC3)c(-c3ccccc3)nc2n1 | 2.55 | 59 |  |
| Cc1cc(C)n2c(NC3CCCCC3)c(-c3cccc4c3OC(F)(F)O4)nc2n1 | 6.27 | > 25 |  |
| Fc1cc(N2CCOCC2)ccc1-c1nc2ncc(Cl)cn2c1NC1CCCCC1 | 2.49 | 54 |  |
| Fc1cccc(-c2nc3ncccn3c2NC2CCCCC2)c1 | 0.39 | > 25 |  |
| Fc1ccc(-c2nc3ncccn3c2NC2CCCCC2)cc1F | 0.07 | > 100 | remaining at 1 h, up to 10 µM [3]: 5.3%; remaining at 1 h, up to 10 µM [4]: 2.2%; Stability [5]: Stable; remaining at 1 h, up to 10 µM [6]: 114%; remaining at 1 h, up to 10 µM [7]: 7.2%; Stability [8]: Stable; remaining at 1 h, up to 10 µM [9]: 19.7%; remaining at 1 h, up to 10 µM [10]: 7.3%; remaining at 1 h, up to 10 µM [11]: 51.7%; remaining at 1 h, up to 10 µM [12]: 5.5%; remaining at 1 h, up to 10 µM [13]: 10.9%; remaining at 1 h, up to 10 µM [14]: 48.8%; remaining at 1 h, up to 10 µM [15]: 113%; remaining at 1 h, up to 10 µM [16]: 2.7% |
| COc1cc(-c2nc3nc(C)cc(C)n3c2NC2CCCCC2)ccc1F | 2.06 | > 25 |  |
| Cc1cc(C)n2c(NC3CCCCC3)c(-c3ccc(F)c(F)c3)nc2n1 | 1.3 | > 25 |  |
| CCN(c1c(-c2ccc(F)c(F)c2)nc2ncccn12)C1CCCCC1 | 12.8 | > 100 | remaining at 1 h, up to 10 µM [4]: 1%; remaining at 1 h, up to 10 µM [6]: 103%; remaining at 1 h, up to 10 µM [15]: 110%; remaining at 1 h, up to 10 µM [16]: 0% |
| CC12CC3CC(C)(C1)CC(Nc1c(-c4ccc(F)c(F)c4)nc4ncccn14)(C3)C2 | 9.18 | 15.5 |  |
| Fc1ccc(-c2nc3ncccn3c2NC2CCCCC2)cc1 | 0.04 | > 100 |  |
| CCOc1ccc(-c2nc3nc(C)cc(C)n3c2NC2CCCCC2)cc1OC | 5.33 | > 25 |  |

From ChEMBL document CHEMBL6134909 (Eur J Med Chem, 2025)
